Consider 3 compounds from patent US10265374B2, “Occidiofungin formations and uses thereof” (MISSISSIPPI STATE UNIVERSITY, priority 2014, dated 2019).

Where two headings read alike, the source gives them in different places. Starred links: 1 amine or outer side, 2 acyl side, 3 side chain; linkers in the order of their positions; H or OH if unused. Positions of bridges follow the written chain, without caps; N, C: chain ends. Non-standard residues stand in square brackets, D forms with d. Residues, ends and D or L forms follow the SMILES beside them. ξ: configuration not given here. X1 = CCCCCCCCCCCC(OC1OCC(O)C(O)C1O)C(O)C(O)CC(CC(=O)[*:1])N[*:2]; ξTyr(βOH) = NC(C(=O)O)C(O)c1ccc(O)cc1; ξAsn(3ξ-OH) = NC(=O)C(O)C(N)C(=O)O; Dab = NCC[CH](N)C(=O)O

The test system of series [1] is normal cells with lower metobolism. Conditions: cited from earlier work.
Series [2] in a line: In vitro toxicity screening (CellTiter-Blue cell viability, 48 hours). The format is cell-based, human. Conditions: human. An excerpt: Cancer cell lines, OVCAR8 (Center for Cancer Research (OVAR.8; Sample ID 25)), SW1088 (ATCC-HTB-12), and Toledo (ATCC CRL-2631), and normal human neonatal dermal fibroblasts cell line (ATCC-PCS-201-010) were passaged and prepped as previously described (See References 15-17). OVCAR8, SW1088, and Toledo2631 are ovarian, brain, and B-cell lymphoma cancer cell lines, respectively. This panel of cell lines was chosen based, in part, on their being from very different cancer types in order to discern whether occidiofungin would have a broad spectrum activity towards cancer cell lines of vastly different parental organ/cell types. OVCAR8 cells are widely used in the field of cancer therapeutic research as a panel representative of ovarian cancer in screening experiments for identifying both ovarian-specific and non-specific (i.e., anti-neoplastic activity on multiple cancer cell types) therapeutic agents (See References 28-30). Similarly, SW1088 cells are widely used in the field of cancer therapeutic research as a panel representative of glioma (the most common brain cancer) in screening experiments for identifying both glioma-specific and non-specific therapeutic agents (See References 31-32). Toledo 2631 cells are derived from lymphoma cells, and are used in the field of cancer therapeutic research for identifying lymphoma-specific and non-specific therapeutic agents (See, e.g., Reference 33). […] Cell counts per plate were calculated to be approximately 50,000 cells/mL. A 10× stock solution of occidiofungin was prepared at 65 μM concentration in 10% dimethyl sulfoxide (DMSO). Two-fold serial dilutions on a 96 well plate were set up in triplicate with starting concentration of 6.5 μM and a final concentration of 3 nM. Bortezomib was used as a comparator for toxicity against human fibroblast and was serially diluted two-fold starting at a concentration of 5 μM and ending at 2.5 nM. Bortezomib is used clinically against myeloma and lymphoma cancers in patients refractory against other chemotherapeutics (See References 18, 19). Furthermore, bortezomib has shown efficacy against a variety of solid tumors and cancer cell lines, making this an appropriate comparison molecule in the panel of cell lines chosen (See References 34-35). The plates were then incubated at 37° C. in 5% CO2 for 48 hours. After 48 hours, cell viability was monitored using CellTiter-Blue (Promega) cell viability assay by measuring the fluorescence emission of a redox activated dye (579EX/584EM) using a POLARstar Omega microplate reader (BMG Labtech).

A short description of series [3]: Pharmacokinetics of occidiofungin in DOPC or DOPC:DPPG vesicles. Conditions: for half-life: female, BALB/c. The series is classed as in vivo, mice. The method, then:
Entrapment of occidiofungin in vesicles was done using 1,2-Dioleoyl-sn-glycero-3-phosphocholine (DOPC) and 1,2-dipalmitoyl-sn-glycero-3-[phospho-rac-(3-lysyl(1-glycerol))] (DPPG) from Avanti polar lipids. Lipid cake formation and subsequent hydration was done according to the manufacturer's recommendation. Briefly, 20 mg/ml of DOPC in chloroform was placed in a glass beaker and dried by vacuum evaporation to remove the organic solvent. The lipid film formed was hydrated using a 1 μg/μl solution of occidiofungin in 1.5% (2-Hydroxypropyl)-β-cyclodextrin (Alfa Aesar), while maintaining the lipid concentration at 20 mg/ml and the solution was sonicated to form the vesicles. Similarly, DPPG was mixed with DOPC at a ratio of 9:1 (DOPC:DPPG) to make a homogenous lipid mixture at a concentration of 20 mg/ml and the same process of drying and hydration was repeated to make vesicles. Following vesicle formation, estimation of the amount of occidiofungin trapped inside each type of vesicle was done. The mixture containing free and vesicle trapped occidiofungin was passed through a gel filtration column containing Sephadex G-10 beads. The void volume (containing only the vesicle trapped occidiofungin) was collected and occidiofungin extracted using methanol (50% final concentration). Liquid chromatography was done on the extracted sample, and a standard and the concentration of occidiofungin in the extracted sample was estimated by a comparison of peak volumes.
Occidiofungin in DOPC and DOPC-DPPG, at a concentration of 2.5 mg/kg, with ˜1.25 mg/kg entrapped in vesicles, was administered to six female BALB/c mice respectively via intravenous administration. […] The mice were weighed prior to the start of the experiment and every 24 hours post injection (hpi).
Blood was drawn at time points 1 hpi, 3 hpi, 5 hpi, 7 hpi, 9 hpi, 12 hpi, 18 hpi, 24 hpi and 48 hpi. 15 μl of blood was drawn from the lateral saphenous vein of each mouse for the first three time points. Blood from three mice were pooled together and added to 5 μl of 6.4% citric acid to prevent coagulation. From the fourth time point, blood was drawn from the tail vein of the mice. Blood samples were spun down at 13000 rpm for 10 minutes to separate the plasma. The plasma and the blood pellet obtained were stored separately at −20° C. until analysis. The plasma samples were thawed and the occidiofungin was extracted using a final concentration of 50% methanol. The protein precipitate was spun down at 13000 rpm for 10 minutes and the supernatant was used for analysis. Liquid chromatography was done using Acclaim 120 C18 columns (Length: 150 mm; I.D: 2.1 mm; 5 μm) to purify the occidiofungin in the sample. The occidiofungin was then subjected to MS/MS. Fragmentation of the occidiofungin (parent mass 1200 and 1216 Da) was carried out and the fragment of 1068 and 1084 Da m/z, which corresponds to the occidiofungin molecule (A and B forms, respectively) without the xylose sugar, was used for quantification of occidiofungin. A calibration curve constructed using standard concentrations of occidiofungin in plasma was used to analyze the samples obtained from the mice for pharmacokinetics (See FIGS. 6A-6B & 7A-7B).

Regarding `CC(C)C[C@H](NC(=O)[C@H](Cc1ccccc1)NC(=O)c1cnccn1)B(O)O` [Bortezomib, bortezomib, reference compound], in series [1], the “toxicity in normal cells” value is reported as “micromolar range”. Also, half-maximal cytotoxicity in series [2] (CC50 at 48 h) was put at 4.09 µM.
In series [3] (mouse, in vivo, iv, 2.5 mg/kg), `CCCCCCCCCCCC(OC1OCC(O)C(O)C1O)C(O)C(O)CC1CC(=O)NC(CO)C(=O)NC(C(O)c2ccc(O)cc2)C(=O)NC(CCN)C(=O)NCC(=O)NC(CC(N)=O)C(=O)NC(CO)C(=O)NC(CC(N)=O)C(=O)N1` (stereo not drawn) [OCFIN-A] (S[ξTyr(βOH)][Dab]GNSN; linker N-C via X1; configuration not given here) showed a half-life of 14.6 h and a ke1 of 0.0474 h⁻¹.
`CCCCCCCCCCCC(OC1OCC(O)C(O)C1O)C(O)C(O)CC1CC(=O)NC(CO)C(=O)NC(C(O)c2ccc(O)cc2)C(=O)NC(CCN)C(=O)NCC(=O)NC(CC(N)=O)C(=O)NC(CO)C(=O)NC(C(O)C(N)=O)C(=O)N1` (stereo not drawn) [OCFIN-B] (S[ξTyr(βOH)][Dab]GNS[ξAsn(3ξ-OH)]; linker N-C via X1; configuration not given here): the half-life in series [3] (mouse, in vivo, iv, packaged in DOPC:DPPG (90:10) vesicles, 2.5 mg/kg i.v., mice, read-out: t½ (converted)) is 14.8 h. In series [3] (packaged in DOPC:DPPG (90:10) vesicles, 2.5 mg/kg i.v., mice), this compound had a ke1 of 0.0467 h⁻¹.
